Key:
AChE enzyme = AChE enzyme (Homo sapiens, UniProt P22303); assay: biochemical; format: biochemical; details: for inhibition at 1000 µM: read-out: AChE% inhibition 10^−3 M; for inhibition at 100 µM: read-out: AChE% inhibition 10^−4 M; for IC50: tested at 10 to 0.001 µM
Source text: (§1) The assay was completed in two steps.
(§2) The potential inhibitory effects of the obtained molecules on the AChE and BChE enzymes was examined using a variation of the Ellman method.[31,33,41–43] Distilled water from the Millipore/Milli-Q purification apparatus was utilized at every stage of the biological activity investigations during the evaluation process. In less than a week, all the solutions required for the biological investigation were meticulously prepared from scratch. A “BioTek-Precision Power (United States)” robotic pipetting system was utilized to distribute the prepared solutions and apply the test compounds and enzyme–substrate solutions to 96-well plates. The “BioTek-Synergy H1 Microplate Reader (United States)” was employed to establish and follow the enzyme protocol for spectrophotometric measurements. Solutions of the compounds were prepared at two different concentrations, 10^−3 M and 10^−4 M, using dimethylsulfoxide (DMSO) as 2% solution, and these were used in biological activity studies.

BChE enzyme = BChE enzyme (Homo sapiens, UniProt P06276); assay: biochemical; details: for inhibition at 1000 µM: read-out: BChE% inhibition 10^−3 M; for inhibition at 100 µM: read-out: BChE% inhibition 10^−4 M
Source text: as §1, §2

Sequence of AChE enzyme (P22303 32-614): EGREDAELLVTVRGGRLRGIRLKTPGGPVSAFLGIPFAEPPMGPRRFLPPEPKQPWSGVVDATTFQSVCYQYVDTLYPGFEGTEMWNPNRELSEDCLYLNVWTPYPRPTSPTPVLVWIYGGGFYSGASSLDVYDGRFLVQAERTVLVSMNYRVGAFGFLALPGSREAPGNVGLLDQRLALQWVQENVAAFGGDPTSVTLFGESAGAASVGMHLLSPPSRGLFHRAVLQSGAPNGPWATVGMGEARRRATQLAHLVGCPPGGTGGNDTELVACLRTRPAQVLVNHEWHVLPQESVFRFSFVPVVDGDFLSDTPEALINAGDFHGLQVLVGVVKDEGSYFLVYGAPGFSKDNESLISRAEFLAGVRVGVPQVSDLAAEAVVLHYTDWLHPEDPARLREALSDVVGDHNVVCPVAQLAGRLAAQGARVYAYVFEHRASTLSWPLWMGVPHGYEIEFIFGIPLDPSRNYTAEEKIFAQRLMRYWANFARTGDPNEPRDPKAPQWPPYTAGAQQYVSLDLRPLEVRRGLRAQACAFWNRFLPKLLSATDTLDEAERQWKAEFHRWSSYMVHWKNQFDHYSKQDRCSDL
Sequence of BChE enzyme (P06276 29-602, species assumed): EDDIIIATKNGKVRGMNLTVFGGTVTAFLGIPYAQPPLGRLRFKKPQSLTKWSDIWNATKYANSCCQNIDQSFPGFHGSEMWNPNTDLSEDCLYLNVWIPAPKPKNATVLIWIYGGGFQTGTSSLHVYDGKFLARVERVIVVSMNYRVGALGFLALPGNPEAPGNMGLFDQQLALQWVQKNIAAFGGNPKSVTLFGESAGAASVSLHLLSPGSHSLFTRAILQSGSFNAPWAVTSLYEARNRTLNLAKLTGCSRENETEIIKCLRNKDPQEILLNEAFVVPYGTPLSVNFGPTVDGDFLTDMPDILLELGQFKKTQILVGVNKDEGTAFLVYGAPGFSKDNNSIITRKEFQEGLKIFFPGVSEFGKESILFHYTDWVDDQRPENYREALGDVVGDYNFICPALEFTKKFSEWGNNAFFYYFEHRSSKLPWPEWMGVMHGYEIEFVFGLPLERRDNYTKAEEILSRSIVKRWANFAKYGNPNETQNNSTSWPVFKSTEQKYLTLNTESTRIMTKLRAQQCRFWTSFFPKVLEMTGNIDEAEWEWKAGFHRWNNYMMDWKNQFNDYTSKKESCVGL

Compound	inhibition at 1000 µM (AChE enzyme) [%]	inhibition at 100 µM (AChE enzyme) [%]	IC50 (AChE enzyme) [µM]	IC50 (BChE enzyme) [µM]	inhibition at 1000 µM (BChE enzyme) [%]	inhibition at 100 µM (BChE enzyme) [%]	inhibitory activity (AChE enzyme; at concentrations of 1000 and 100 µM)
CC(=NN=c1scc(-c2ccc(Cl)cc2)n1C)c1ccc(N2CCCCC2)cc1 [D1d, 4-(4-Chlorophenyl)-3-methyl-2-((1-(4-(piperidin-1-yl)phenyl)ethylidene)hydrazineylidene)-2,3-dihydrothiazole]	55.7 ± 2.08	29.6 ± 1.23	> 100	> 1000	23 ± 0.725	15.2 ± 0.734	–
C=CCn1c(-c2ccc(OC)cc2)csc1=NN=C(C)c1ccc(N2CCCCC2)cc1 [D2e, 3-Allyl-4-(4-methoxyphenyl)-2-((1-(4-(piperidin-1-yl)phenyl)ethylidene)hydrazineylidene)-2,3-dihydrothiazole]	39.6 ± 1.76	25.3 ± 1.06	> 1000	> 1000	25.7 ± 0.963	17.2 ± 0.634	–
C=CCn1c(-c2ccc(F)cc2)csc1=NN=C(C)c1ccc(N2CCCCC2)cc1 [D2b, 3-Allyl-4-(4-fluorophenyl)-2-((1-(4-(piperidin-1yl)phenyl)ethylidene)hydrazineylidene)-2,3-dihydrothiazole]	47.2 ± 2.17	41.7 ± 1.96	> 1000	> 1000	38.2 ± 1.66	27.4 ± 1.25	–
CCn1c(-c2ccc(Cl)c(Cl)c2)csc1=NN=C(C)c1ccc(N2CCCCC2)cc1 [D3h, 4-(3,4-Dichlorophenyl)-3-ethyl-2-((1-(4-(piperidin-1 yl)phenyl)ethylidene)hydrazineylidene)-2,3-dihydrothiazole]	28.4 ± 1.25	23.7 ± 0.969	> 1000	> 1000	38.7 ± 1.32	32.5 ± 1.13	–
C=CCn1c(-c2ccc([N+](=O)[O-])cc2)csc1=NN=C(C)c1ccc(N2CCCCC2)cc1 [D2c, 3-Allyl-4-(4-nitrophenyl)-2-((1-(4-(piperidin-1-yl)phenyl)ethylidene)hydrazineylidene)-2,3-dihydrothiazole]	67 ± 1.85	31.4 ± 0.932	> 100	> 1000	35 ± 1.14	30.7 ± 1.15	–
CC(=NN=c1scc(-c2ccc(Cl)cc2Cl)n1C)c1ccc(N2CCCCC2)cc1 [D1g, 4-(2,4-Dichlorophenyl)-3-methyl-2-((1-(4-(piperidin-1-yl)phenyl)ethylidene)hydrazineylidene)-2,3-dihydrothiazole]	63.5 ± 1.96	16.9 ± 0.778	> 100	> 1000	36.3 ± 1.56	31.1 ± 1.07	–
C=CCn1c(-c2ccc(C)cc2C)csc1=N/N=C(\C)c1ccc(N2CCCCC2)cc1 [D2i, 3-Allyl-4-(2,4-dimethylphenyl)-2-(((E)-1-(4-(piperidin-1-yl)phenyl)ethylidene)hydrazineylidene)-2,3-dihydrothiazole]	28.1 ± 1.25	20.5 ± 0.862	> 1000	> 1000	42.1 ± 2.02	28.7 ± 1.12	–
C=CCn1c(-c2ccc(C)cc2)csc1=NN=C(C)c1ccc(N2CCCCC2)cc1 [D2a, 3-Allyl-2-((1-(4-(piperidin-1-yl)phenyl)ethylidene)hydrazineylidene)-4-(p-tolyl)-2,3-dihydrothiazole]	38.6 ± 1.35	30.1 ± 1.45	> 1000	> 1000	30.8 ± 1.07	20.9 ± 0.802	–
COc1ccc(-c2csc(=NN=C(C)c3ccc(N4CCCCC4)cc3)n2C)cc1 [D1e, 4-(4-Methoxyphenyl)-3-methyl-2-((1-(4-(piperidin-1-yl)phenyl)ethylidene)hydrazineylidene)-2,3-dihydrothiazole]	92.6 ± 1.8	84.1 ± 2.15	0.613 ± 0.025	> 1000	27.6 ± 1.08	17.9 ± 0.71	more than 50%
CCn1c(-c2ccc(OC)cc2)csc1=NN=C(C)c1ccc(N2CCCCC2)cc1 [D3e, 3-Ethyl-4-(4-methoxyphenyl)-2-((1-(4-(piperidin-1-yl)phenyl)ethylidene)hydrazineylidene)-2,3-dihydrothiazole]	34.1 ± 1.57	21.6 ± 0.926	> 1000	> 1000	36.3 ± 1.42	30.3 ± 0.956	–
CC(=NN=c1scc(-c2ccc(F)cc2)n1C)c1ccc(N2CCCCC2)cc1 [D1b, 4-(4-Fluorophenyl)-3-methyl-2-((1-(4-(piperidin-1 yl)phenyl)ethylidene)hydrazineylidene)-2,3-dihydrothiazole]	37.2 ± 1.54	31.1 ± 1.36	> 1000	> 1000	30.2 ± 0.936	19.6 ± 0.864	–
C=CCn1c(-c2ccc(C#N)cc2)csc1=NN=C(C)c1ccc(N2CCCCC2)cc1 [D2f, 4-(3-Allyl-2-((1-(4-(piperidin-1-yl)phenyl)ethylidene)hydrazineylidene)-2,3-dihydrothiazol-4-yl)benzonitrile]	76 ± 2.28	29.8 ± 1.26	> 100	> 1000	21.9 ± 0.855	16.5 ± 0.578	–
CCn1c(-c2ccc(C#N)cc2)csc1=NN=C(C)c1ccc(N2CCCCC2)cc1 [D3f, 4-(-3-Ethyl-2-((-1-(4-(piperidin-1-yl)phenyl)ethylidene)hydrazineylidene)-2,3-dihydrothiazol-4-yl)benzonitrile]	57.4 ± 1.72	25.4 ± 0.856	> 100	> 1000	30.2 ± 1.05	21.1 ± 0.947	–
CCn1c(-c2ccc(C)cc2C)csc1=NN=C(C)c1ccc(N2CCCCC2)cc1 [D3i, 4-(2,4-Dimethylphenyl)-3-ethyl-2-((1-(4-(piperidin-1-yl)phenyl)ethylidene)hydrazineylidene)-2,3-dihydrothiazole]	40.9 ± 1.59	22.1 ± 0.962	> 1000	> 1000	31.5 ± 1.04	24.1 ± 0.858	–
C=CCn1c(-c2ccc(Cl)cc2Cl)csc1=NN=C(C)c1ccc(N2CCCCC2)cc1 [D2g, 3-Allyl-4-(2,4-dichlorophenyl)-2-((1-(4-(piperidin-1-yl)phenyl)ethylidene)hydrazineylidene)-2,3-dihydrothiazole]	39.7 ± 1.88	31.6 ± 1.47	> 1000	> 1000	29.3 ± 1.35	24 ± 1.07	–
C=CCn1c(-c2ccc(Cl)cc2)csc1=NN=C(C)c1ccc(N2CCCCC2)cc1 [D2d, 3-Allyl-4-(4-chlorophenyl)-2-((1-(4-(piperidin-1 yl)phenyl)ethylidene)hydrazineylidene)-2,3-dihydrothiazole]	31.2 ± 1.32	28 ± 0.884	> 1000	> 1000	30.5 ± 1.03	20 ± 0.926	–
C=CCn1c(-c2ccc(Cl)c(Cl)c2)csc1=N/N=C(\C)c1ccc(N2CCCCC2)cc1 [D2h, 3-Allyl-4-(3,4-dichlorophenyl)-2-(((E)-1-(4-(piperidin-1-yl)phenyl)ethylidene)hydrazineylidene)-2,3-dihydrothiazole]	31.5 ± 1.04	20.3 ± 0.989	> 1000	> 1000	36.2 ± 1.36	31.5 ± 0.963	–
CC(=NN=c1scc(-c2ccc(C)cc2)n1C)c1ccc(N2CCCCC2)cc1 [D1a, 3-Methyl-2-((1-(4-(piperidin-1-yl)phenyl)ethylidene)hydrazineylidene)-4-(p-tolyl)-2,3-dihydrothiazole]	40.5 ± 1.92	36.5 ± 1.72	> 1000	> 1000	32.5 ± 1.06	20.4 ± 0.984	–
CCn1c(-c2ccc(Cl)cc2)csc1=NN=C(C)c1ccc(N2CCCCC2)cc1 [D3d, 4-(4-Chlorophenyl)-3-ethyl-2-((1-(4-(piperidin-1-yl)phenyl)ethylidene)hydrazineylidene)-2,3-dihydrothiazole]	32.3 ± 1.44	23.3 ± 1.05	> 1000	> 1000	37.5 ± 1.46	21.3 ± 1.07	–
CCn1c(-c2ccc(F)cc2)csc1=NN=C(C)c1ccc(N2CCCCC2)cc1 [D3b, 3-Ethyl-4-(4-fluorophenyl)-2-((1-(4-(piperidin-1-yl)phenyl)ethylidene)hydrazineylidene)-2,3-dihydrothiazole]	40.2 ± 1.85	35.8 ± 1.25	> 1000	> 1000	32.6 ± 1.46	22.6 ± 0.964	–
CCn1c(-c2ccc(Cl)cc2Cl)csc1=NN=C(C)c1ccc(N2CCCCC2)cc1 [D3g, 4-(2,4-Dichlorophenyl)-3-ethyl-2-((1-(4-(piperidin-1 yl)phenyl)ethylidene)hydrazineylidene)-2,3-dihydrothiazole]	26.7 ± 1.15	20.9 ± 0.884	> 1000	> 1000	33.5 ± 1.26	26.8 ± 1.06	–
CCn1c(-c2ccc(C)cc2)csc1=NN=C(C)c1ccc(N2CCCCC2)cc1 [D3a, 3-Ethyl-2-((1-(4-(piperidin-1-yl)phenyl)ethylidene)hydrazineylidene)-4-(p-tolyl)-2,3-dihydrothiazole]	56.2 ± 1.75	37.5 ± 0.921	> 100	> 1000	45.4 ± 2.09	25.3 ± 1	–
